Active and inactive are the calls of the source. No rule for the calls is given here.

Results on 4 compounds are retold here after PubChem BioAssay AID1259407 (Chemical Carcinogenesis Research Information System (CCRIS), 2018).

The subject of this series is CCRIS mutagenicity, Ames/micronucleus/aberration tests. As to the kind of experiment: CCRIS mutagenicity studies.
Setting [1] is: Test System: AMES SALMONELLA TYPHIMURIUM, Strain/Indicator: TA98, Metabolic Activation: HAMSTER, LIVER, S-9, AROCLOR 1254 (10%), Method: PREINCUBATION
The mark [2] stands for this setting: Test System: AMES SALMONELLA TYPHIMURIUM, Strain/Indicator: TA98, Metabolic Activation: NONE, Method: PREINCUBATION
[3] abbreviates: Test System: AMES SALMONELLA TYPHIMURIUM, Strain/Indicator: TA98, Metabolic Activation: RAT, LIVER, S-9, AROCLOR 1254 (10%), Method: PREINCUBATION
The mark [4] stands for this setting: Test System: AMES SALMONELLA TYPHIMURIUM, Strain/Indicator: TA100, Metabolic Activation: HAMSTER, LIVER, S-9, AROCLOR 1254 (10%), Method: PREINCUBATION
Setting [5] is: Test System: AMES SALMONELLA TYPHIMURIUM, Strain/Indicator: TA100, Metabolic Activation: NONE, Method: PREINCUBATION
Setting [6] is: Test System: AMES SALMONELLA TYPHIMURIUM, Strain/Indicator: TA100, Metabolic Activation: RAT, LIVER, S-9, AROCLOR 1254 (10%), Method: PREINCUBATION
Where [7] appears, read: Test System: AMES SALMONELLA TYPHIMURIUM, Strain/Indicator: TA1535, Metabolic Activation: HAMSTER, LIVER, S-9, AROCLOR 1254 (10%), Method: PREINCUBATION
Where [8] appears, read: Test System: AMES SALMONELLA TYPHIMURIUM, Strain/Indicator: TA1535, Metabolic Activation: NONE, Method: PREINCUBATION
[9] abbreviates: Test System: AMES SALMONELLA TYPHIMURIUM, Strain/Indicator: TA1535, Metabolic Activation: RAT, LIVER, S-9, AROCLOR 1254 (10%), Method: PREINCUBATION
Setting [10] is: Test System: AMES SALMONELLA TYPHIMURIUM, Strain/Indicator: TA1537, Metabolic Activation: HAMSTER, LIVER, S-9, AROCLOR 1254 (10%), Method: PREINCUBATION
Setting [11] is: Test System: AMES SALMONELLA TYPHIMURIUM, Strain/Indicator: TA1537, Metabolic Activation: NONE, Method: PREINCUBATION
Setting [12] is: Test System: AMES SALMONELLA TYPHIMURIUM, Strain/Indicator: TA1537, Metabolic Activation: RAT, LIVER, S-9, AROCLOR 1254 (10%), Method: PREINCUBATION

Turning to `OCC(Br)CBr` (stereo not drawn), the mutagenic call was “active; positive” under setting [1]; “active; positive” under setting [2]; “active; positive” under setting [3]; “active; positive” under setting [4]; “active; positive” under setting [5]; “active; positive” under setting [6]. The mutagenic call is “active; positive” (Test System: AMES SALMONELLA TYPHIMURIUM, Strain/Indicator: TA100, Metabolic Activation: RAT, LIVER, S-9, AROCLOR 1254, Method: STANDARD PLATE); “active; positive” (Test System: AMES SALMONELLA TYPHIMURIUM, Strain/Indicator: TA102, Metabolic Activation: S-9, Method: STANDARD PLATE); “active; positive” under setting [7]; “active; positive” under setting [8]; “active; positive” under setting [9]; “active; positive” (Test System: AMES SALMONELLA TYPHIMURIUM, Strain/Indicator: TA1535, Metabolic Activation: RAT, LIVER, S-9, AROCLOR 1254, Method: STANDARD PLATE). Besides, the mutagenic call is “inactive; negative” under setting [10]; “inactive; negative” under setting [11]; “inactive; negative” under setting [12]; “active; positive” (Test System: AMES SALMONELLA TYPHIMURIUM, Strain/Indicator: TA2638, Metabolic Activation: S-9, Method: STANDARD PLATE); “active; positive” (Test System: E. COLI, Strain/Indicator: WP2 (PKM101), Metabolic Activation: S-9, Method: STANDARD PLATE); “active; positive” (Test System: E. COLI, Strain/Indicator: WP2 UVRA (PKM101), Metabolic Activation: S-9, Method: STANDARD PLATE). Further, under “Test System: MOUSE LYMPHOMA, Strain/Indicator: L5178Y (TK+/TK-), Metabolic Activation: NONE, Method: SUSPENSION/PLATE”, the mutagenic call was “active; positive”.

For the compound `O=C1OC(c2ccc(O)cc2)(c2ccc(O)cc2)c2ccccc21`, the mutagenic call reads like this: (End Point: In vivo micronucleus, Test System: Peripheral blood normochromatic erythrocytes, Species: Mouse, Strain/Sex: Haploinsufficient p16(Ink4a)p19(Arf), Route: Oral) “active; positive”; (End Point: In vivo micronucleus, Test System: Polychromatic erythrocytes, Species: Mouse, Strain/Sex: C57BL/6TacBr-[KO]p53[TSG-p53], Route: Oral) “active; positive at all days”; under setting [1], “inactive; negative”; under setting [2], “inactive; negative”; under setting [3], “inactive; negative”; under setting [4], “inactive; negative”. Moreover, the mutagenic call is, setting by setting: under setting [5], “inactive; negative”; under setting [6], “inactive; negative”; under setting [7], “inactive; negative”; under setting [8], “inactive; negative”; under setting [9], “inactive; negative”; under setting [10], “inactive; negative”. Besides, the mutagenic call reads like this: under setting [11], “inactive; negative”; under setting [12], “inactive; negative”; (Test System: Syrian hamster embryo cells, Strain/Indicator: HPRT/6-thioguanine, Method: Plate) “active; positive”.

As for `C=C(Br)C(=O)O`, the mutagenic call reads like this: under setting [5], “inactive; negative”; (Test System: AMES SALMONELLA TYPHIMURIUM, Strain/Indicator: TA100, Metabolic Activation: RAT, LIVER, MICROSOMES, Method: PREINCUBATION) “inactive; negative”.

`Cc1cc2cc3cc(C)c(N)cc3nc2cc1N`: the mutagenic call was “active; positive” (Test System: AMES SALMONELLA TYPHIMURIUM, Strain/Indicator: TA98, Method: PREINCUBATION) and “active; positive” (Test System: AMES SALMONELLA TYPHIMURIUM, Strain/Indicator: TA100, Method: PREINCUBATION).
